Measured values as given in patent publication US8580815B2, “Derivatives of azaindoles as inhibitors of protein kinases ABL and SRC” (Oribase Pharma, priority 2009, dated 2013).
Where two headings read alike, the source gives them in different places.

How the values were obtained:
[1] = biological target: Abl kinase (h) (Homo sapiens (Human), UniProt P00519); test: Cerep kinase profiling, HTRF assay, Abl kinase; assay type: biochemical
Experimental: The inhibitory activity of the compounds of the chemical series on different protein kinases was evaluated by Cerep (Cerep Kinase Profiling Service; www.cerep.com). The kinases used in the tests in vitro are human recombinant proteins expressed in human cells, insect cells or in bacteria. […] The activity of the kinase was then detected by an HTRF assay. The HTRF assay (CisBio International) is based on fluorescence transfer, using Europium (Eu3+) cryptate and XL665 respectively as donor and acceptor. When the biotinylated or tagged substrate is phosphorylated by the kinase, it reacts with a cryptate-labelled phosphospecific antibody. Addition of Streptavidin-XL665, SA-XL665, (or anti-tag antibody XL665) leads to juxtaposition of the cryptate and of the fluorophore XL665, which is reflected in fluorescence resonance energy transfer (FRET). The intensity of FRET depends on the quantity of cryptate-labelled antibody bound to the substrate, which is proportional to the quantity of phosphorylated substrate (Mathis, G. Probing molecular interactions with homogeneous techniques based on rare earth cryptates and fluorescence energy transfer.

[2] = biological target: Src kinase (Homo sapiens (Human), UniProt P12931); test: Reaction Biology Corp. kinase assay, Src; details: read-out: % inhibition of kinase activity, Src (category), 10 μM; compounds tested by Reaction Biology Corp.
[3] = biological target: Abl WT (Homo sapiens (Human), UniProt P00519); test: Reaction Biology Corp. kinase assay, Abl WT; assay type: biochemical; details: 10 μM; compounds tested by Reaction Biology Corp.; read-out: % inhibition of kinase activity, Abl WT (category)
Experimental: (§1) 4 compounds were tested for their capacity to inhibit various mutated kinases AbI (American company, Reaction Biology Corp.).

[4] = biological target: Abl T315I (Homo sapiens (Human), UniProt P00519, T315I); test: Reaction Biology Corp. kinase assay, mutated Abl T315I; assay type: biochemical; details: 10 μM; Reaction Biology Corp.; read-out: % inhibition of kinase activity, Abl T315I (category)
Experimental: as §1

[5] = 10 μM, compounds tested by Cerep, read-out: % inhibition of kinase activity, Abl WT (category)
[6] = Table 6, compound incubated at 10 μM, read-out: Percentage inhibition of kinase Abl
[7] = Table 9, Cerep, 5 concentrations 10^−10 M to 10^−4 M, read-out: IC50 in M Abl
[8] = compounds tested by Cerep, read-out: IC50 on kinase Abl WT (category)

Src kinase, sequence (P12931 whole entry, looked up): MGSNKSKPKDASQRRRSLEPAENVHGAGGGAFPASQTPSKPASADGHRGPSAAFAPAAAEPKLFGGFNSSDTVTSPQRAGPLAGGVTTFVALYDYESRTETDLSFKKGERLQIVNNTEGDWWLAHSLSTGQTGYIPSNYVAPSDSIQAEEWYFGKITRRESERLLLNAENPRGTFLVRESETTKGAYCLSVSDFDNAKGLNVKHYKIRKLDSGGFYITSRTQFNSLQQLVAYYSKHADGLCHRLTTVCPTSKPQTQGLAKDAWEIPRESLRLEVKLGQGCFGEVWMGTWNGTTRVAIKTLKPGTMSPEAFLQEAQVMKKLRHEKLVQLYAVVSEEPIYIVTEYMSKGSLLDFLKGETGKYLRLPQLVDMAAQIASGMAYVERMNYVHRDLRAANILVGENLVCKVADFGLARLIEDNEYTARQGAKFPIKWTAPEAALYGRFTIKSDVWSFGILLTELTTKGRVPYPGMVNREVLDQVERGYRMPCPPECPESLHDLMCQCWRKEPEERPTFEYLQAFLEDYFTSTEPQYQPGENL

inhibition at 10 µM [1, 5] [%] | inhibition at 10 µM [1, 6] [%] | Structure (SMILES) | further results
> 50 | 82 | O=C(Nc1cnc2[nH]c(CO)cc2c1)c1ccccc1Br [ND0019, 2-bromo-N-(2-(hydroxymethyl)-1H-pyrrolo[2,3-b]pyridin-5-yl)benzamide] | 
10 to 50 | 20 | COC(=O)c1cc2cc(NC(=O)c3cccc(C#N)c3)cnc2[nH]1 [ND0051, Methyl 5-(3-cyanobenzamido)-1H-pyrrolo[2,3-b]pyridine-2-carboxylate] | 
 |  | COC(=O)c1cc2cc(Nc3cccc(Br)c3)cnc2[nH]1 [ND0104] | inhibition at 10 µM [2]: < 10%
10 to 50 | 10 | NC(=O)c1cc2cc(NC(=O)c3cccc(F)c3)cnc2[nH]1 [ND0005, 5-(3-Fluorobenzamido)-1H-pyrrolo[2,3-b]pyridine-2-carboxamide] | 
10 to 50 | 15 | COC(=O)c1cc2cc(NC(=O)c3ccc(-c4csc(C)n4)cc3)cnc2[nH]1 [ND0054, Methyl 5-(4-(2-methylthiazol-4-yl)benzamido)-1H-pyrrolo[2,3-b]pyridine-2-carboxylate] | 
10 to 50 | 17 | O=C(Nc1cnc2[nH]c(CNc3cccc([N+](=O)[O-])c3)cc2c1)c1ccccc1Br [ND0034] | 
10 to 50 | 27 | N#Cc1ccc(NCc2cc3cc(NC(=O)c4ccccc4Br)cnc3[nH]2)cc1 [ND0032] | 
 |  | COC(=O)c1cc2cc(NCc3ncc[nH]3)cnc2[nH]1 [ND0095] | inhibition at 10 µM [3]: 10 to 50%; inhibition at 10 µM [2]: 10 to 50%; inhibition at 10 µM [4]: < 10%
 |  | COC(=O)c1cc2cc(NC(=O)c3cccc(Br)c3)cnc2[nH]1 [ND0075, Methyl 5-(3-bromobenzamido)-1H-pyrrolo[2,3-b]pyridine-2-carboxylate] | inhibition at 10 µM [3]: 10 to 50%; inhibition at 10 µM [2]: 10 to 50%; inhibition at 10 µM [4]: 10 to 50%
< 10 | 6 | COC(=O)c1cc2cc(NC(=O)C3CC3)cnc2[nH]1 [ND0044, Methyl 5-(cyclopropanecarboxamido)-1H-pyrrolo [2,3-b]pyridine-2-carboxylate] | 
10 to 50 | 46 | COC(=O)c1cc2cc(NC(=O)c3cccc(F)c3F)cnc2[nH]1 [ND0061, Methyl 5-(2,3-difluorobenzamido)-1H-pyrrolo[2,3-b]pyridine-2-carboxylate] | 
10 to 50 | 14 | COc1cccc(NCc2cc3cc(NC(=O)c4ccccc4Br)cnc3[nH]2)c1 [ND0041] | 
< 10 | 6 | Cc1nc(-c2cccc(C(=O)Nc3cnc4[nH]c(C(=O)NCCCN(C)C)cc4c3)c2)cs1 [ND0011, 5-(3-(2-methylthiazol-4-yl)benzamido)-N-(3-(dimethylamino)propyl)-1H-pyrrolo[2,3-b]pyridine-2-carboxamide] | IC50 [1, 7]: > 100 µM; IC50 [1, 8]: > 10 µM
10 to 50 | 27 | COC(=O)c1cc2cc(NC(=O)c3cccnc3)cnc2[nH]1 [ND0050, Methyl 5-(nicotinamido)-1H-pyrrolo[2,3-b]pyridine-2-carboxylate] | 
< 10 | 6 | COC(=O)c1cc2cc(NC(=O)c3cccc4c3OCC4)cnc2[nH]1 [ND0062, Methyl 5-(2,3-dihydrobenzofuran-7-carboxamido)-1H-pyrrolo[2,3-b]pyridine-2-carboxylate] | 
< 10 | 5 | COC(=O)c1cc2cc(NC(=O)c3ccccc3Oc3ccccc3)cnc2[nH]1 [ND0059, Methyl 5-(2-phenoxybenzamido)-1H-pyrrolo[2,3-b]pyridine-2-carboxylate] | 
10 to 50 | 14 | O=C(Nc1cnc2[nH]c(CNCc3ccccc3)cc2c1)c1ccccc1Br [ND0028] | 

inhibition at 10 µM [1, 5] [%] | inhibition at 10 µM [1, 6] [%] | Structure (SMILES) | further results
< 10 | 8 | CN(C)CCCNC(=O)c1cc2cc(NC(=O)c3ccc4nccnc4c3)cnc2[nH]1 [ND0012, N-(2-(3-(dimethylamino)propylcarbamoyl)-1H-pyrrolo[2,3-b]pyridin-5-yl)quinoxaline-6-carboxamide] | 
 |  | COC(=O)c1cc2cc(Nc3ccc(Br)cc3)cnc2[nH]1 [ND0107] | inhibition at 10 µM [2]: 10 to 50%
10 to 50 | 29 | O=C(Nc1cnc2[nH]c(CNc3cccc(Br)c3)cc2c1)c1ccccc1Br [ND0027] | 
10 to 50 | 21 | Cc1cccc(NCc2cc3cc(NC(=O)c4ccccc4Br)cnc3[nH]2)c1 [ND0040] | 
10 to 50 | 33 | COC(=O)c1cc2cc(NC(=O)c3cccc(F)c3)cnc2[nH]1 [ND0053, Methyl 5-(3-fluorobenzamido)-1H-pyrrolo[2,3-b]pyridine-2-carboxylate] | 
10 to 50 | 39 | O=C(Nc1cnc2[nH]c(C[C@H]3CCCO3)cc2c1)c1ccccc1Br [ND0025] | 
 |  | COC(=O)c1cc2cc(Nc3cccc(OC)c3)cnc2[nH]1 [ND0102] | inhibition at 10 µM [2]: 10 to 50%
10 to 50 | 16 | CCCSc1ncccc1C(=O)Nc1cnc2[nH]c(C(=O)OC)cc2c1 [ND0060, Methyl 5-(2-(propylthio)pyridine-3-carboxamido)-1H-pyrrolo[2,3-b]pyridine-2-carboxylate] | 
< 10 | 8 | CC1CCCCC1NCc1cc2cc(NC(=O)c3ccccc3Br)cnc2[nH]1 (centres unmarked) [ND0026] | 
> 50 | 58 | COC(=O)c1cc2cc(NC(=O)C(C)C)cnc2[nH]1 [ND0045, Methyl 5-(isobutyramido)-1H-pyrrolo[2,3-b]pyridine-2-carboxylate] | 
 |  | COC(=O)c1cc2cc(Nc3ccc(OC)cc3)cnc2[nH]1 [ND0109] | inhibition at 10 µM [2]: 10 to 50%
< 10 | 1 | O=C(Nc1cnc2[nH]c(C(=O)N3CCOCC3)cc2c1)c1cc([N+](=O)[O-])ccc1F [ND0010, 5-(2-fluoro-5-nitrobenzamido)-2-morpholinocarbonyl-1H-pyrrolo[2,3-b]pyridine] | IC50 [1, 7]: > 100 µM; IC50 [1, 8]: > 10 µM
> 50 | 86 | O=C(Nc1cnc2[nH]c(Cn3ccnc3)cc2c1)c1ccccc1Br [ND0031] | IC50 [1, 7]: 4 µM; IC50 [1, 8]: 0.1 to 10 µM
10 to 50 | 47 | N#Cc1ccccc1NCc1cc2cc(NC(=O)c3ccccc3Br)cnc2[nH]1 [ND0036] | 
10 to 50 | 49 | CCC(=O)Nc1cnc2[nH]c(C(=O)OC)cc2c1 [ND0046, Methyl 5-(propionamido)-1H-pyrrolo[2,3-b]pyridine-2-carboxylate] | 
10 to 50 | 33 | O=C(Nc1cnc2[nH]c(C(=O)NCCN3CCOCC3)cc2c1)c1cccc(F)c1 [ND0006, 5-(3-fluorobenzamido)-N-(2-morpholinoethyl)-1H-pyrrolo[2,3-b]pyridine-2-carboxamide] | IC50 [1, 7]: > 100 µM; IC50 [1, 8]: > 10 µM
10 to 50 | 31 | COc1ccc(OC(=O)c2cc3cc(NC(=O)c4ccccc4)cnc3[nH]2)cc1 [ND0004, 5-(benzamido)-1H-pyrrolo[2,3-b]pyridine-2-4-methoxyphenyl carboxylate] | 
